In PMC6707612, “Cyclic-di-GMP binds to histidine kinase RavS to control RavS-RavR phosphotransfer and regulates the bacterial lifestyle transition between virulence and swimming” (PLoS Pathogens, 2019):

What was measured:
DHp-CA^R656A = biological target: T1, DHp-CA^R656A (Xanthomonas campestris pv. campestris, UniProt Q8P9A6, R656A); assay: microscale thermophoresis (MST) binding; details: compared with DHp-CA protein
T1 sequence (Q8P9A6 464-697 R656A): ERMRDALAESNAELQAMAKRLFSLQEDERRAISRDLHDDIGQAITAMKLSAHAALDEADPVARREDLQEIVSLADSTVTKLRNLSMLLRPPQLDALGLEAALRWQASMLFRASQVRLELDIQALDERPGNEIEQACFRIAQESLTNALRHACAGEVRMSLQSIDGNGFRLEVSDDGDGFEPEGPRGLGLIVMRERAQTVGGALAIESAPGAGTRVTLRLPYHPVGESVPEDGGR
Procedure: (§1) Fig 6 Arg^656 in the CA domain of RavS is a key residue for c-di-GMP binding. (a, b) c-di-GMP binds to the DHp-CA domain of RavS. PAS-A, PAS-B and DHp-CA in (a), and DHp and CA domains of RavS in (b), were purified and the interaction with c-di-GMP was measured by MST. Each assay was repeated three times. Standard deviations are shown. (c) Molecular docking model of the interaction between c-di-GMP and DHp-CA of RavS. c-di-GMP is shown as a ball-and-stick model and DHp-CA is shown in ribbon representation. (d) Schematic view of the predicted docking site between c-di-GMP and DHp-CA. Potential hydrogen bonds are indicated as blue dashed lines. Autodock software was used to predict the interaction. (e) Effect of amino acid substitutions on RavS–c-di-GMP binding. Ten recombinant proteins of the DHp-CA region, each containing a substitution of a putative essential residue involved in c-di-GMP binding, were used in the MST assay to quantify the Kd value of RavS–c-di-GMP binding. fl-c-di-GMP was used in the MST assay. Each experiment was repeated three times. […] The reactions were terminated with 5× SDS loading buffer and the products were separated by 12% SDS-PAGE, exposed to a phosphor screen and analysed by Typhoon FLA7000. […]
(§2) The interaction between c-di-GMP nucleotides and various proteins was measured by using MST with a fluorescein-labelled c-di-GMP (2′-Fluo-AHC-c-di-GMP, abbreviated as fl-c-di-GMP; 2′-Fluo-AHC-c-di-AMP, fl-c-di-AMP; 2′-Fluo-AHC-cGMP, fl-cGMP; Biolog, Germany). These chemicals contain carboxyfluorescein that has excitation and emission wavelengths of 497 nm and 520 nm, respectively, which can be detected directly by a MST instrument. […] Fluorescence intensity due to thermophoresis was recorded using the blue channel optics of the instrument (λex = 470 ± 15 nm, λem = 520 ± 10 nm) during a 30 s period of infrared laser heating at 80% of the maximum laser power, followed by a 5 s cooling period. […]

RavS^ΔN(R656A) = assay: in vitro phosphotransfer assay with Arg656-substituted RavS; type: biochemical, Xanthomonas campestris pv. campestris; details: 15 or 100 μM c-di-GMP
Procedure: as §1, with “(e) Effect of amino acid substitutions on RavS–c-di-GMP binding.” left out, “assay.” for “assay. Each experiment was repeated three times.”
An in vitro autophosphorylation assay was conducted as described in our previous study. […] After electrophoresis, gels were exposed to a phosphor screen (GE Healthcare) and the autoradiographic signals were detected by a Typhoon FLA7000 (GE Healthcare).

DHp-CA domain of RavS = DHp-CA domain of RavS (Xanthomonas campestris pv. campestris, UniProt Q8P9A6); assay: microscale thermophoresis (MST) binding; details: read-out: dissociation constant (Kd)
Procedure: as §1, §2

CA domain of RavS = CA domain of RavS (Xanthomonas campestris pv. campestris, UniProt Q8P9A6); assay: microscale thermophoresis (MST) binding; details: read-out: dissociation constant (Kd)
Procedure: as §1, §2

DHp domain of RavS = assay: microscale thermophoresis (MST) binding; parameters: species or system Xanthomonas campestris pv. campestris; details: DHp region
Procedure: as §1, §2

PAS-A of RavS = assay: microscale thermophoresis (MST) binding; parameters: species or system Xanthomonas campestris pv. campestris; details: PAS-A region
Procedure: as §1, §2

PAS-B of RavS = assay: microscale thermophoresis (MST) binding; parameters: species or system Xanthomonas campestris pv. campestris; details: PAS-B region
Procedure: as §1, §2

Nc1nc2c(ncn2[C@@H]2O[C@@H]3COP(=O)(O)O[C@H]4[C@@H](O)[C@H](n5cnc6c(=O)[nH]c(N)nc65)O[C@@H]4COP(=O)(O)O[C@H]3[C@H]2O)c(=O)[nH]1 [c-di-GMP, Cyclic di-GMP]
fold decrease in binding affinity (DHp-CA^R656A): 10 fold | stimulation of phosphotransferase activity of RavS^ΔN(R656A)~P towards RavR^ΔEAL (RavS^ΔN(R656A)): failed to stimulate

Nc1nc2c(ncn2[C@@H]2O[C@@H]3COP(=O)(O)O[C@H]4[C@@H](OC(=O)NCCCCCCNC(=O)c5ccc6c(c5)C(=O)OC65c6ccc(O)cc6Oc6cc(O)ccc65)[C@H](n5cnc6c(=O)[nH]c(N)nc65)O[C@@H]4COP(=O)(O)O[C@H]3[C@H]2O)c(=O)[nH]1 [fl-c-di-GMP, 2′-Fluo-AHC-c-di-GMP]
Kd (DHp-CA domain of RavS): 6.25 ± 0.8 µM | Kd (CA domain of RavS): 17.1 ± 3.78 µM | binding (MST) (DHp domain of RavS): no binding | binding (MST) (PAS-A of RavS): no binding | binding (MST) (PAS-B of RavS): no binding
